Results published in the NIST ThermoML archive (doi:10.1016/j.jct.2009.08.009).

Test: xn = mol fraction of the nth substance listed
Conditions: 101 kPa, Liquid; for viscosity: Capillary tube (Ostwald / Ubbelohde) method; for speed of sound: Sing-around technique in a fixed-path interferometer; for mass density: Vibrating tube method

CCCCCCCCCCO [decan-1-ol] + CCOCCOCCO
x2 = 0
Conditions	viscosity [mPa·s]
293.15 K	13.04
298.15 K	11.19
303.15 K	9.066
308.15 K	7.459

CCCCCCO [hexan-1-ol] + CCOCCOCCO
x2 = 0
Conditions	viscosity [mPa·s]
293.15 K	4.963
298.15 K	4.439
303.15 K	3.675
308.15 K	3.108

CCOCCOCCO [3,6-dioxa-1-octanol] + CCCCCCO
Conditions	mass density [kg/m3]	speed of sound [m/s]	viscosity [mPa·s]
293.15 K, x1 = 0.0515	828.146	1322.4	4.442
293.15 K, x1 = 0.1039	837.651	1324.9	4.111
293.15 K, x1 = 0.1456	845.454	1327.5	3.932
293.15 K, x1 = 0.2078	857.041	1331.1	3.714
293.15 K, x1 = 0.2501	864.989	1334.2	3.614
293.15 K, x1 = 0.3127	876.967	1338.7	3.482
293.15 K, x1 = 0.3517	884.493	1342.1	3.423
293.15 K, x1 = 0.5241	918.471	1358.7	3.279
293.15 K, x1 = 0.6227	938.481	1370.5	3.308
293.15 K, x1 = 0.7217	959.157	1384.3	3.352
293.15 K, x1 = 0.8227	980.826	1400.4	3.384
293.15 K, x1 = 0.915	1000.91	1416.4	3.588
293.15 K, x1 = 1	–	–	3.626
298.15 K, x1 = 0.0515	824.518	1305.4	3.906
298.15 K, x1 = 0.1039	833.976	1308	3.655
298.15 K, x1 = 0.1456	841.738	1310.6	3.495
298.15 K, x1 = 0.2078	853.267	1314.3	3.352
298.15 K, x1 = 0.2501	861.179	1317.4	3.237
298.15 K, x1 = 0.3127	873.107	1322	3.121
298.15 K, x1 = 0.3517	880.591	1325.3	3.066
298.15 K, x1 = 0.5241	914.427	1341.9	2.951
298.15 K, x1 = 0.6227	934.36	1353.8	2.965
298.15 K, x1 = 0.7217	954.955	1367.5	3.009
298.15 K, x1 = 0.8227	976.55	1383.5	3.054
298.15 K, x1 = 0.915	996.56	1399.5	3.235
298.15 K, x1 = 1	–	–	3.278
303.15 K, x1 = 0.0515	820.874	1288.7	3.381
303.15 K, x1 = 0.1039	830.282	1291.3	3.154
303.15 K, x1 = 0.1456	838.004	1293.9	3.026
303.15 K, x1 = 0.2078	849.482	1297.6	2.879
303.15 K, x1 = 0.2501	857.352	1300.7	2.809
303.15 K, x1 = 0.3127	869.225	1305.3	2.726
303.15 K, x1 = 0.3517	876.678	1308.7	2.682
303.15 K, x1 = 0.5241	910.37	1325.3	2.584
303.15 K, x1 = 0.6227	930.226	1337.1	2.605
303.15 K, x1 = 0.7217	950.745	1350.8	2.647
303.15 K, x1 = 0.8227	972.261	1366.7	2.693
303.15 K, x1 = 0.915	992.202	1382.6	2.801
303.15 K, x1 = 1	–	–	2.862
308.15 K, x1 = 0.0515	817.198	1272.1	2.901
308.15 K, x1 = 0.1039	826.564	1274.7	2.72
308.15 K, x1 = 0.1456	834.246	1277.3	2.631
308.15 K, x1 = 0.2078	845.669	1280	2.503
308.15 K, x1 = 0.2501	853.504	1284.2	2.443
308.15 K, x1 = 0.3127	865.322	1288.8	2.374
308.15 K, x1 = 0.3517	872.742	1292.1	2.342
308.15 K, x1 = 0.5241	906.299	1308.8	2.266
308.15 K, x1 = 0.6227	926.073	1320.6	2.278
308.15 K, x1 = 0.7217	946.516	1334.2	2.297
308.15 K, x1 = 0.8227	967.953	1350	2.349
308.15 K, x1 = 0.915	987.826	1365.8	2.445
308.15 K, x1 = 1	–	–	2.507
